Read-outs that look alike come from different tables or passages of the source.
Experiments:
[1] = biological target: BCL6-NCOR2(SMRT) corepressor protein-protein interaction (Homo sapiens (Human), UniProt P41182); assay: NanoBRET cell assay in transfected HEK293T cells; type: cell-based; details: HEK293T cells, 6 hr; for IC50: read-out: NanoBRET cell pIC50 (converted)
Text: A cellular nano-Bioluminescence Resonance Energy Transfer (nanoBRET) assay (Promega NanoBRET Nano-Glo Detection System, catalogue number N1662) was used to detect inhibition of the BCL6-NCOR2(SMRT) corepressor protein-protein interaction. DNA encoding full length BCL6 and NCOR2 were inserted into pFC32K.NanoLuc and pFC14K.HaloTag vectors (Promega) to produce C-terminal tagged fusion proteins BCL6-nanoLuc and NCOR2-HaloTag, respectively. […] Frozen transfected HEK293T cells were thawed, centrifuged and freezing medium was replaced by phenol red-free OptiMEM+4% FBS (Life Technology). […] Cells were incubated for 6 hr at 37° C./5% CO2 then NanoBRET furimazine substrate (Promega) was added to give a final concentration of 10 μM. After a short centrifugation the plates were read on an Envision (Perkin Elmer) plate reader equipped with a LUM/D600 Dual mirror, Lum 450/40 nm bandpass and D605 nm longpass filters, with a 0.2 sec reading to determine the BRET ratio. The % inhibition at each test concentration was calculated by normalising the BRET ratio to the appropriate high and low controls.

[2] = biological target: human BCL6 BTB domain (Trx-6xHis-BCL6) (Homo sapiens (Human), UniProt P41182); assay: HTRF in vitro assay (BCL6 BTB domain / BCOR-AF633 peptide); type: binding; details: for IC50: read-out: HTRF pIC50 (converted)
Experimental: The % inhibition at each concentration was calculated by normalising FRET ratio to the appropriate high (DMSO with all reagents) and low (DMSO without BCL6) controls.

[3] = further generated data (Table 2b)
[4] = further generated data (Table 1b), 1 nM Trx-6xHis-BCL6, 0.5 nM anti-6xHis-Terbium cryptate
[5] = initially generated data (Table 1a), 10 nM Trx-6xHis-BCL6, 1 nM anti-6xHis-Terbium cryptate

Row | Compound | NanoBRET cell pIC50 [1, 3] | IC50 ([1]; initially generated data (Table 2a)) | HTRF pIC50 [2, 4] | HTRF pIC50 [2, 5] | IC50 [1, 3] | IC50 [2, 4]
1 | CC(Nc1cc(=O)n(CC2CCOCC2)c2ccc(Nc3ccnc(Cl)c3C#N)cc12)c1ncccn1 (centres unmarked) [Example 1d, 2-chloro-4-[[2-oxo-4-(1-pyrimidin-2-ylethylamino)-1-(tetrahydropyran-4-ylmethyl)-6-quinolyl]amino]pyridine-3-carbonitrile] | 5.45 | 3.55 µM | 6.58 | 6.58 | – | –
2 | Cc1nc(-n2ccc(C(F)(F)F)n2)nc(Nc2ccc3c(c2)c(NC(C)(C)c2ncccn2)cc(=O)n3C)c1Cl [Example 14a, 6-((5-chloro-6-methyl-2-(3-(trifluoromethyl)-1H-pyrazol-1-yl)pyrimidin-4-yl)amino)-1-methyl-4-((2-(pyrimidin-2-yl)propan-2-yl)amino)quinolin-2(1H)-one] | – | – | 6.66 | – | 3.89 µM | –
3 | Cn1c(=O)cc(NC(c2ncccn2)C2CC2)c2cc(Nc3ccnc(Cl)c3C#N)ccc21 (centres unmarked) [Example 10p, 2-chloro-4-((4-((cyclopropyl(pyrimidin-2-yl)methyl)amino)-1-methyl-2-oxo-1,2-dihydroquinolin-6-yl)amino)nicotinonitrile] | – | – | 6.44 | – | 2.34 µM | –
4 | COC1CCC1Nc1cc(=O)n(C)c2ccc(Nc3ccnc(Cl)c3C#N)cc12 (racemic) [Example 22a, rac-2-chloro-4-((4-(((1R,2S)-2-methoxycyclobutyl)amino)-1-methyl-2-oxo-1,2-dihydroquinolin-6-yl)amino)nicotinonitrile or rac-2-chloro-4-((4-(((1R,2R)-2-methoxycyclobutyl)amino)-1-methyl-2-oxo-1,2-dihydroquinolin-6-yl)amino)nicotinonitrile] | – | – | – | – | 2.34 µM | 0.251 µM
5 | Cn1c(=O)cc(NC(C)(C)c2ncc(C3CC3)cn2)c2cc(Nc3cc(C(=O)N4CCC4)nc(Cl)c3C#N)ccc21 [Example 8b, 6-(azetidine-1-carbonyl)-2-chloro-4-((4-((2-(5-cyclopropylpyrimidin-2-yl)propan-2-yl)amino)-1-methyl-2-oxo-1,2-dihydroquinolin-6-yl)amino)nicotinonitrile] | – | – | 7.86 | – | 0.741 µM | –
6 | C[C@@H](Nc1nc(=O)n(C)c2ccc(Nc3ccnc(Cl)c3Cl)cc12)C1CC1 [Example 6d, (R)-4-((1-cyclopropylethyl)amino)-6-((2,3-dichloropyridin-4-yl)amino)-1-methylquinazolin-2(1H)-one] | – | – | 6.09 | – | 1.82 µM | –
7 | COc1cc(Nc2nc(N3CCC(C(=O)N(C)C)CC3)ncc2Cl)cc2c(NC(C)(C)c3ncccn3)cc(=O)n(C)c12 [Example 12c] | – | – | – | – | 3.31 µM | 0.525 µM
8 | C[C@@H]1CN(c2ncc(Cl)c(Nc3ccc4c(c3)c(NC(C)(C)c3ncccn3)cc(=O)n4C)n2)C[C@H](C)O1 [Example 12f, 6-((5-chloro-2-((2S,6R)-2,6-dimethylmorpholino)pyrimidin-4-yl)amino)-1-methyl-4-((2-(pyrimidin-2-yl)propan-2-yl)amino)quinolin-2(1H)-one] | – | – | 6.57 | – | 2.45 µM | –
9 | COCC1CCN1c1ncc(Cl)c(Nc2ccc3c(c2)c(N[C@H](C)C2CC2)cc(=O)n3C)n1 (stereo partly drawn) [Example 26b, 6-((5-chloro-2-(2-(methoxymethyl)azetidin-1-yl)pyrimidin-4-yl)amino)-4-(((R)-1-cyclopropylethyl)amino)-1-methylquinolin-2(1H)-one: formic acid (1:1)] | – | – | 6.31 | – | 2.69 µM | –
10 | CNC(=O)c1cc(Nc2ccc3c(c2)c(NC(C)(C)c2ncccn2)cc(=O)n3C)c(C#N)c(Cl)n1 [Example 1u, 6-chloro-5-cyano-N-methyl-4-[[1-methyl-4-[(1-methyl-1-pyrimidin-2-yl-ethyl)amino]-2-oxo-6-quinolyl]amino]pyridine-2-carboxamide] | – | – | 7.51 | 7.44 | 0.525 µM | –
11 | Cc1cc(C(C)Nc2cc(=O)n(C)c3ccc(Nc4ccnc(Cl)c4C#N)cc23)no1 (centres unmarked) [Example 1m, 2-chloro-4-[[1-methyl-4-[1-(5-methylisoxazol-3-yl)ethylamino]-2-oxo-6-quinolyl]amino]pyridine-3-carbonitrile] | – | – | 5.88 | 6.15 | 5.37 µM | –
12 | C[C@@H]1CN(c2cnc(C(C)(C)Nc3cc(=O)n(C)c4ccc(Nc5ccnc(Cl)c5C#N)cc34)nc2)C[C@H](C)O1 [Example 7a, 2-Chloro-4-((4-((2-(5-((2R,6S)-2,6-dimethylmorpholino)pyrimidin-2-yl)propan-2-yl)amino)-1-methyl-2-oxo-1,2-dihydroquinolin-6-yl)amino)nicotinonitrile] | – | – | 7.91 | – | 0.347 µM | –
13 | CC(Nc1cc(=O)n(C)c2ccc(Nc3cc(-n4cc(CCO)cn4)ncc3Cl)cc12)c1ncccn1 (centres unmarked) [Example 15i, 6-((5-chloro-2-(4-(2-hydroxyethyl)-1H-pyrazol-1-yl)pyridin-4-yl)amino)-1-methyl-4-((1-(pyrimidin-2-yl)ethyl)amino)quinoline-2(1H)-one] | – | – | 6.58 | – | 1.55 µM | –
14 | Cc1cc(Nc2ccc3c(c2)c(NC(C)c2ncccn2)cc(=O)n3C)c(C#N)c(Cl)n1 (centres unmarked) [Example 1w, 2-chloro-6-methyl-4-[[1-methyl-2-oxo-4-(1-pyrimidin-2-ylethylamino)-6-quinolyl]amino]pyridine-3-carbonitrile] | – | – | 6.90 | 6.29 | 1.58 µM | –
15 | CC(Nc1cc(=O)n(C)c2ccc(Nc3nc(N4CCC(C(=O)N(C)C)CC4)ncc3Cl)cc12)c1ncccn1 (centres unmarked) [Example 17c, 1-(5-chloro-4-((-methyl-2-oxo-4-((1-(pyrimidin-2yl)ethyl)amino)-1,2-dihydroquinolin-6-yl)amino)pyrimidin-2-yl)-N,N-dimethylpiperidine-4-carboxamide] | – | – | – | – | 3.72 µM | 0.339 µM
16 | CNC(=O)c1cc(Nc2ccc3c(c2)c(NC2CCC2OC)cc(=O)n3C)c(C#N)c(Cl)n1 (racemic) [Example 23a, rac-6-chloro-5-cyano 4-((4-(((1R,2R)-2-methoxycyclobutyl)amino)-1-methyl-2-oxo-1,2-dihydroquinolin-6-yl)amino)-N-methylpicolinamide or rac-6-chloro-5-cyano-4-((4-(((1R,2S)-2-methoxycyclobutyl)amino)-1-methyl-2-oxo-1,2-dihydroquinolin-6-yl)amino)-N-methylpicolinamide] | – | – | – | – | 6.76 µM | 0.38 µM
17 | CNC(=O)c1cc(Nc2ccc3c(c2)c(NC(C)c2ncccn2)cc(=O)n3C)c(C#N)c(Cl)n1 (centres unmarked) [Example 1v, 6-chloro-5-cyano-N-methyl-4-[[1-methyl-2-oxo-4-(1-pyrimidin-2-ylethylamino)-6-quinolyl]amino]pyridine-2-carboxamide] | – | – | 7.31 | 6.76 | 0.933 µM | –
18 | CC(Nc1cc(=O)n(C)c2ccc(Nc3ccnc(Cl)c3C#N)cc12)c1ncc(C2CCC2)cn1 (centres unmarked) [Example 24f, 2-chloro-4-((4-((1-(5-cyclobutylpyrimidin-2-yl)ethyl)amino)-1-methyl-2-oxo-1,2-dihydroquinolin-6-yl)amino)nicotinonitrile] | – | – | 7.26 | – | 1.62 µM | –
19 | CNC(=O)c1cc(Nc2ccc3c(c2)c(NC(C)C2CC2)cc(=O)n3C)c(C#N)c(Cl)n1 (centres unmarked) [Example 7b, 6-chloro-5-cyano-4-((4-((1-cyclopropylethyl)amino)-1-methyl-2-oxo-1,2-dihydroquinolin-6-yl)amino)-N-methylpicolinamide] | – | – | – | – | 1.12 µM | 0.288 µM
20 | Cc1cc(C)n(-c2ncc(Cl)c(Nc3ccc4c(c3)c(NC(C)c3ncn(C)n3)cc(=O)n4C)n2)n1 (centres unmarked) [Example 14b, 6-((5-chloro-2-(3,5-dimethyl-1H-pyrazol-1-yl)pyrimidin-4-yl)amino)-1-methyl-4-((1-(1-methyl-1H-1,2,4-triazol-3-yl)ethyl)amino)quinolin-2(1H)-one] | – | – | 6.64 | – | 8.32 µM | –
21 | CNC(=O)c1cc(Nc2ccc3c(c2)c(NC(C)c2ncccn2)cc(=O)n3C)c(C#N)c(C)n1 (centres unmarked) [Example 18b, 5-cyano-N, 6-dimethyl-4-((1-methyl-2-oxo-4-((1-(pyrimidin-2-yl)ethyl)amino)-1,2-dihydroquinolin-6-yl)amino)picolinamide] | – | – | 6.40 | – | 7.08 µM | –
22 | C[C@@H](Nc1cc(=O)n(C)c2ccc(Nc3cc(C(=O)N4CCC4)ncc3Cl)cc12)C1CC1 [Example 15d, (R)-6-((2-(azetidine-1-carbonyl)-5-chloropyridin-4-yl)amino)-4-((1-cyclopropylethyl)amino)-1-methylquinolin-2(1H)-one] | – | – | 6.42 | – | 1.78 µM | –
23 | C[C@@H](Nc1cc(=O)n(C)c2ccc(Nc3cc(-n4cc(CCO)cn4)ncc3Cl)cc12)C1CC1 [Example 15f, (R)-6-((5-chloro-2-(4-(2-hydroxyethyl)-1H-pyrazol-1-yl)pyridin-4-yl)amino)-4-((1-cyclopropylethyl)amino)-1-methylquinolin-2(1H)-one] | – | – | 6.58 | – | 2.29 µM | –
24 | CC(Nc1cc(=O)n(C)c2ccc(Nc3cc(N4CCC(C(=O)N(C)C)CC4)ncc3Cl)cc12)c1ncccn1 (centres unmarked) [Example 15g, 1-(5-chloro-4-((1-methyl-2-oxo-4-((1-(pyrimidin-2-yl)ethyl)amino)-1,2-dihydroquinolin-6-yl)amino)pyridin-2-y1)-N,N-dimethylpiperidine-4-carboxamide] | – | – | 6.47 | – | 7.24 µM | –
25 | CC(Nc1nc(=O)n(C)c2ccc(Nc3ccnc(Cl)c3Cl)cc12)c1ncccn1 (centres unmarked) [Example 6c, 6-((2,3-dichloropyridin-4-yl)amino)-1-methyl-4-((1-(pyrimidin-2-yl)ethyl)amino)quinazolin-2(1H)-one] | – | – | 6.57 | – | 5.5 µM | –

Reference: patent US11161839B2, “2-quinolone derived inhibitors of BCL6” (Cancer Research Technology Limited, priority 2017, dated 2021)
